{
  "source": "patent US8846066B2",
  "about": "“Methods and related compositions for reduction of fat and skin tightening” (The Regents of the University of California, priority 2004, dated 2014)",
  "key": {"[1]": {"system": "porcine skin (epidermis, dermis, subcutaneous tissue, muscle)", "assay": "Histology of full thickness porcine skin after injection", "method": "Histology was performed by injecting stock reagent solutions (0.5 mL) into full thickness porcine skin at various levels (epidermis, dermis, and subcutaneous tissue) with 1.0 mL syringes and 30-gauge, 0.5 inch needles. Needle depth was visualized along the margin of the porcine tissue with the intent of saturating the target tissue. One hour after incubation with PBS at 37° C., multiple 5.0 mm biopsy specimens were obtained from the injected sites, each condition performed in triplicate. Tissue was fixed in formaldehyde, paraffin-embedded, and stained with hematoxylin-eosin. Specimens were evaluated by a board-certified dermatopathologist who was blinded to the treatment protocol."}, "[2]": {"system": "porcine fat tissue", "assay": "MTS assay in fresh porcine fat specimens", "type": "cell-based", "details": "PBF or 5% solutions, 4 hours", "method": "To measure cell viability after detergent treatment, HaCaT human keratinocyte cells were cultured in DMEM (Dulbecco's modified Eagle's medium) supplemented with 10% fetal calf serum, penicillin, and streptomycin. […] Cell viability was determined by an absorbance spectrophotometer (at 490 nm) after 4 hour incubation with the assay at 37° C. To determine cell viability in fresh tissue, fat specimens were incubated for 4 hours in 24 well plates with stock reagents and the MTS assay. Tissue specimens were then visualized for color change and the amount of MTS in their supernatants was measured by absorbance (at 490 nm). All studies were performed in triplicate. Absorbance at 490 nm (OD 490) is proportional to the number of living cells in the culture.\nPorcine tissue was obtained immediately after sacrifice, shaved, and placed on ice for a maximum of four hours before use. […] Calcein retention was determined by tissue fluorescence using purple (411 nm) light and visually observing the emitted green (500 nm) light using an emission filters.\nFresh porcine skin was used to determine if the effects of these detergent substances on cultured cells were similar in tissue. […] The difference in fat cell viability between the solutions was quantified by measuring the absorbance (at 490) of the supernatants collected from the treated fat specimens (FIG. 3b). […]"}, "[3]": {"system": "adipocytes", "assay": "Adipocyte survival on addition of PC to 4.75% DC", "type": "cell-based", "details": "5% phosphatidylcholine added to 4.75% DC", "method": "FIG. 9 illustrates survival of adipocytes when phosphatidylcholine is added to 4.75% sodium deoxycholate solution. On y-axis, 1 represents 100% survival. All % concentrations are w/v %. Survival of the cells in the absence of DC and PC is on an average 0.113."}},
  "data": [
    {"molecule": "CCCCCCCCCCCC[N+](C)(C)CC(=O)[O-]", "note": "[Empigen, lauryldimethylbetaine, reference compound]", "values": [
      {"measurement": "histologic changes in epidermis, dermis, adnexal structures", "setting": "[1]", "value": "loss of fibroblast nuclear staining and hyalinization of dermal collagen"}
    ]},
    {"molecule": "alkylaryl polyether alcohol [Triton, reference compound]", "values": [
      {"measurement": "fat cell viability (MTS purple dye, absorbance at 490)", "setting": "[2]", "value": "comparable loss of purple dye"}
    ]},
    {"molecule": "phosphatidylcholine", "values": [
      {"measurement": "effect of phosphatidylcholine on adipolysis", "setting": "[3]", "value": "inhibits adipolysis slightly"}
    ]}
  ]
}
